# Results from patent publication US11524966B1 (Valo Early Discovery, Inc., priority 2017, dated 2022).
# Biological target: T1, USP25 (USP25-His6, Boston Biochem E-546) (Homo sapiens, UniProt Q9UHP3)
# T1 construct: His6; purchased Boston Biochem E-546
# T1 sequence (Q9UHP3 1-1055): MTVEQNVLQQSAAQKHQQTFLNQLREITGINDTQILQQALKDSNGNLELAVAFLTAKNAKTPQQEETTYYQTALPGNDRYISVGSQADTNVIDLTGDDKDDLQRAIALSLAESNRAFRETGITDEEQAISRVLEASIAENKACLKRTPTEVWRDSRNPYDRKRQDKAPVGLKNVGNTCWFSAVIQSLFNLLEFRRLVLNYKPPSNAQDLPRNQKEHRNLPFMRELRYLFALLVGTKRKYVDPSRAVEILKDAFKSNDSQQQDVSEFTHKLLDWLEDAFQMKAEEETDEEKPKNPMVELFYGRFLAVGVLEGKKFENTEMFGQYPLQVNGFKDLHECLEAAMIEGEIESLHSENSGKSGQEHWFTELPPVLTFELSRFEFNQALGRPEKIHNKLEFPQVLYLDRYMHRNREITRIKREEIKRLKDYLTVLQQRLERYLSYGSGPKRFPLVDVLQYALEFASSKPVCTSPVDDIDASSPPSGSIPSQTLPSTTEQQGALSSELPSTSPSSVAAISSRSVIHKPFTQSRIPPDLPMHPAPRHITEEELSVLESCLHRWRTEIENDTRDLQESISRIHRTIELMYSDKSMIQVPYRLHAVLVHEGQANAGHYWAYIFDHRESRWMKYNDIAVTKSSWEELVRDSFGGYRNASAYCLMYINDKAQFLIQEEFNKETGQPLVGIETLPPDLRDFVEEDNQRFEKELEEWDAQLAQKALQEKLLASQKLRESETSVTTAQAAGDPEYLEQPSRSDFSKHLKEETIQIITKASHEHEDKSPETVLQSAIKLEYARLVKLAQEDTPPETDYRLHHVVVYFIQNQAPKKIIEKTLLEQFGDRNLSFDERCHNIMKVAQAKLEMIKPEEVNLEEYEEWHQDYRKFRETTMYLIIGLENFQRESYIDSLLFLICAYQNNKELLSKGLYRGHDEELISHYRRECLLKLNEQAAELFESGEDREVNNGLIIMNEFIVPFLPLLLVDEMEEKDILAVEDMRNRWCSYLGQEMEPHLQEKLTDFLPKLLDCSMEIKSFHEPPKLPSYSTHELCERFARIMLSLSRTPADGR
# Experiment: Ubiquitin-Rhodamine 110 Assay for USP25 Activity, Example A-2
# Type: biochemical
# Details: Ubiquitin-Rhodamine 110 assay, Example A-2; read-out: USP25 A-2 IC50 range
# Procedure, shortened: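 Fluorescence (ex 485, em 535 nm) of cleaved ubiquitin-rhodamine 110 (25 nM, below Km) gave IC50 via 4-parameter logistic fit. Reaction: 45 min, room temperature, citric acid stop, after 30 min compound preincubation with 75 pM USP25-His6 in 20 mM Tris pH 8.0, 3 mM BME, 0.03% BGG, 0.01% Triton X-100; top dose 25 μM.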
row,Compound,IC50
1,"Cc1ccc2c(N)c(C(=O)N[C@H]3COc4cc(N5CC6CCC(C5)N6)c(F)cc4C3)sc2n1 [Example 104, 3-amino-N-[(3R)-7-{3,8-diazabicyclo[3.2.1]octan-3-yl]-6-fluoro-3,4-dihydro-2H-1-benzopyran-3-yl]-6-methylthieno[2,3-b]pyridine-2-carboxamide]",1 to 50 nM
2,"CO[C@@H]1CN(c2ccc3c(c2)OC[C@H](NC(=O)c2sc4nc(C)ccc4c2N)C3)C[C@@H]1N [Example 121, 3-amino-N-[(3R)-7-[(3S,4R)-3-amino-4-methoxypyrrolidin-1-yl]-3,4-dihydro-2H-1-benzopyran-3-yl]-6-methylthieno[2,3-b]pyridine-2-carboxamide]",200 to 2000 nM
3,"Cc1cc(C)c2c(N)c(C(=O)N[C@@H]3COc4cc(N5CCNCC5)c(F)c(F)c4C3)sc2n1 [Example 160, 3-amino-N-[(3S)-5,6-difluoro-7-(piperazin-1-yl)-3,4-dihydro-2H-1-benzopyran-3-yl]-4,6-dimethylthieno[2,3-b]pyridine-2-carboxamide]",200 to 2000 nM
4,"CCn1ccc2cc(C(=O)N[C@H]3CCc4cc(N5C[C@H](OC)[C@@H](N)C5)cc(F)c4C3)nnc21 [Example 138, N-[(2S)-6-[(3S,4S)-3-amino-4-methoxypyrrolidin-1-yl]-8-fluoro-1,2,3,4-tetrahydronaphthalen-2-yl]-7-ethyl-7H-pyrrolo[2,3-c]pyridazine-3-carboxamide]",> 2000 nM
5,"Cc1ccc2c(N)c(C(=O)N[C@H]3COc4cc(N5C[C@H](N)[C@H](C(F)F)C5)ccc4C3)sc2n1 [Example 167, 3-amino-N-[(3R)-7-[(3R,4R)-3-amino-4-(difluoromethyl)pyrrolidin-1-yl]-3,4-dihydro-2H-1-benzopyran-3-yl]-6-methylthieno[2,3-b]pyridine-2-carboxamide]",200 to 2000 nM
6,"Cc1ccc2c(N)c(C(=O)N[C@H]3COc4nc(N5CC6CCC(C5)N6)ccc4C3)sc2n1 [Example 173, 3-amino-N-[(3R)-7-{3,8-diazabicyclo[3.2.1]octan-3-yl]-2H,3H,4H-pyrano[2,3-b]pyridin-3-yl]-6-methylthieno[2,3-b]pyridine-2-carboxamide]",200 to 2000 nM
7,"Cc1ccc2c(N)c(C(=O)N[C@H]3COc4cc([C@H]5C[C@H](N)C5)ccc4C3)sc2n1 [Example 124, 3-amino-6-methyl-N-[(3R)-7-[(1r,3r)-3-aminocyclobutyl]-3,4-dihydro-2H-1-benzopyran-3-yl]thieno[2,3-b]pyridine-2-carboxamide]",200 to 2000 nM
8,"CO[C@H]1CN(c2ccc3c(c2)CC[C@H](NC(=O)c2sc4nc(C)cnc4c2N)C3)C[C@@H]1N [Example 130, 7-amino-N-[(2S)-6-[(3S,4S)-3-amino-4-methoxypyrrolidin-1-yl]-1,2,3,4-tetrahydronaphthalen-2-yl]-3-methylthieno[2,3-b]pyrazine-6-carboxamide]",200 to 2000 nM
9,"Cc1ccc2c(N)c(C(=O)N[C@H]3COc4cc(N5C[C@@H]6OCCN[C@@H]6C5)ccc4C3)sc2n1 [Example 154, N-[(3R)-7-[(4aR,7aS)-octahydropyrrolo[3,4-b]morpholin-6-yl]-3,4-dihydro-2H-1-benzopyran-3-yl]-3-amino-6-methylthieno[2,3-b]pyridine-2-carboxamide]",200 to 2000 nM
10,"Cc1ccc2c(N)c(C(=O)N[C@H]3COc4cc(N5C[C@@H]6NCCO[C@@H]6C5)ccc4C3)sc2n1 [Example 153, N-[(3R)-7-[(4aS,7aR)-octahydropyrrolo[3,4-b]morpholin-6-yl]-3,4-dihydro-2H-1-benzopyran-3-yl]-3-amino-6-methylthieno[2,3-b]pyridine-2-carboxamide]",200 to 2000 nM
11,"COC[C@@H]1CN(c2ccc3c(c2)OC[C@H](NC(=O)c2sc4nc(C)ccc4c2N)C3)C[C@@H]1N [Example 161, 3-amino-N-[(3R)-7-[(3R,4R)-3-amino-4(methoxymethyl)pyrrolidin-1-yl]-3,4-dihydro-2H-1-benzopyran-3-yl]-6-methylthieno[2,3-b]pyridine-2-carboxamide]",200 to 2000 nM
12,"COc1nc2sc(C(=O)N[C@H]3CCc4cc(N5C[C@H](OC)[C@@H](N)C5)ccc4C3)c(N)c2cc1F [Example 135, 3-amino-N-[(2S)-6-[(3S,4S)-3-amino-4-methoxypyrrolidin-1-yl]-1,2,3,4-tetrahydronaphthalen-2-yl]-5-fluoro-6-methoxythieno[2,3-b]pyridine-2-carboxamide]",> 2000 nM
13,"Cc1ccc2c(N)c(C(=O)N[C@H]3COc4c(C#N)c(N5CC6CNCC(C5)O6)cc(F)c4C3)sc2n1 [Example 96, 3-amino-N-[(3R)-8-cyano-5-fluoro-7-{9-oxa-3,7-diazabicyclo[3.3.1]nonan-3-yl}-3,4-dihydro-2H-1-benzopyran-3-yl]-6-methylthieno[2,3-b]pyridine-2-carboxamide]",50 to 200 nM
14,"Cc1cc(C)c2c(N)c(C(=O)N[C@H]3COc4cc(N5CCNCC5)c(F)c(F)c4C3)sc2n1 [Example 159, 3-amino-N-[(3R)-5,6-difluoro-7-(piperazin-1-yl)-3,4-dihydro-2H-1-benzopyran-3-yl]-4,6-dimethylthieno[2,3-b]pyridine-2-carboxamide]",> 2000 nM
15,"Cc1nc2sc(C(=O)N[C@H]3COc4cc(N5CC6CCC(C5)N6)c(F)c(F)c4C3)c(N)c2s1 [Example 108, 6-amino-N-[(3R)-7-{3,8-diazabicyclo[3.2.1]octan-3-yl}-5,6-difluoro-3,4-dihydro-2H-1-benzopyran-3-yl]-2-methylthieno[2,3-d][1,3]thiazole-5-carboxamide]",50 to 200 nM
16,"Cc1ccc2c(N)c(C(=O)N[C@H]3CCc4c(ccc(N5CC6CNCC(C5)O6)c4C#N)C3)sc2n1 [Example 102, 3-amino-N-[(2S)-5-cyano-6-{9-oxa-3,7-diazabicyclo[3.3.1]nonan-3-yl}-1,2,3,4-tetrahydronaphthalen-2-yl]-6-methylthieno[2,3-b]pyridine-2-carboxamide]",50 to 200 nM
17,"COc1ccc2c(N)c(C(=O)N[C@H]3CCc4cc(N5C[C@H](OC)[C@@H](N)C5)ccc4C3)sc2n1 [Example 134, 3-amino-N-[(2S)-6-[(3S,4S)-3-amino-4-methoxypyrrolidin-1-yl]-1,2,3,4-tetrahydronaphthalen-2-yl]-6-methoxythieno[2,3-b]pyridine-2-carboxamide]",> 2000 nM
18,"COC[C@@H]1CNCCN1c1ccc2c(c1)OC[C@H](NC(=O)c1sc3nc(C)ccc3c1N)C2 [Example 155, 3-amino-N-[(3R)-7-[(2S)-2-(methoxymethyl)piperazin-1-yl]-3,4-dihydro-2H-1-benzopyran-3-yl]-6-methylthieno[2,3-b]pyridine-2-carboxamide]",50 to 200 nM
19,"CO[C@H]1CN(c2ccc3c(c2)OC[C@H](NC(=O)c2sc4nc(C)sc4c2N)C3)C[C@@H]1N [Example 118, 6-amino-N-[(3R)-7-[(3S,4S)-3-amino-4-methoxypyrrolidin-1-yl]-3,4-dihydro-2H-1-benzopyran-3-yl]-2-methylthieno[2,3-d][1,3]thiazole-5-carboxamide]",200 to 2000 nM
20,"CO[C@H]1CN(c2ccc3c(c2)CC[C@H](NC(=O)c2sc4nc(C)ccc4c2N)C3)C[C@@H]1N [Example 116, 3-amino-N-[(2S)-6-[(3S,4S)-3-amino-4-methoxypyrrolidin-1-yl}-1,2,3,4-tetrahydronaphthalen-2-yl]-6-methylthieno[2,3-b]pyridine-2-carboxamide]",200 to 2000 nM
21,CCO[C@H]1CN(c2ccc3c(c2)OC[C@H](NC(=O)c2sc4nc(C)ccc4c2N)C3)C[C@H]1N [Example 152],200 to 2000 nM
22,"CCn1ccc2cc(C(=O)N[C@H]3CCc4cc(N5C[C@H](OC)[C@@H](N)C5)ccc4C3)nnc21 [Example 131, N-[(2S)-6-[(3S,4S)-3-amino-4-methoxypyrrolidin-1-yl]-1,2,3,4-tetrahydronaphthalen-2-yl]-7-ethyl-7H-pyrrolo[2,3-c]pyridazine-3-carboxamide]",> 2000 nM
23,"CO[C@@H]1CCN(c2ccc3c(c2)OC[C@H](NC(=O)c2sc4nc(C)ccc4c2N)C3)C[C@H]1N [Example 120, 3-amino-N-[(3R)-7-[(3R,4R)-3-amino-4-methoxypiperidin-1-yl]-3,4-dihydro-2H-1-benzopyran-3-yl]-6-methylthieno[2,3-b]pyridine-2-carboxamide]",200 to 2000 nM
